# Test results: ChEMBL document CHEMBL3779794, “Efficient synthesis and activity of beneficial intestinal flora of two lactulose-derived oligosaccharides” (Eur J Med Chem, 2016)
# Activity calls are given as the source filed them. The rule behind the calls is not given here.
# System: Lactobacillus acidophilus
# Test: Prebiotic activity in Lactobacillus acidophilus in simulated intestinal fluid after 1 to 3 hrs
# Assay type: functional
row,Compound,Activity
1,OC[C@H]1O[C@@H](O[C@@H]2[C@H](O)CO[C@](O)(CO)[C@H]2O)[C@H](O)[C@@H](O)[C@H]1O,Active
2,OC[C@H]1O[C@@H](O[C@H]2[C@H](O)[C@H](O)CO[C@]2(O)CO)[C@H](O)[C@@H](O)[C@H]1O,Active
